Source: US20080009418A1, “Selective Inhibitors” (Alchemia LTD., priority 2004, published 2008)

Columns and labels:
[1] = target: T1, Human melanin-concentrating hormone (MCH1) (Homo sapiens, UniProt Q99705); assay: Radioligand binding, human melanin-concentrating hormone MCH1 membranes, FlashPlate, [125I]-S36057; settings: compound at 10 μM, [125I]-S36057, human MCH1 membranes
T1 construct: purchased Perkin Elmer Biosignal
Protocol: (§1) Cloned receptor membrane preparations from Perkin Elmer Biosignal™ were used in radioligand binding assays.
(§2) A1 Human δ-opioid (DOP), A2 Human κ-Opioid (KOP), A3 Human Melanocortin (MC3), A4 Human Melanocortin (MC4), A5 Human melanocortin (MC5), A6 Human melanin-concentrating hormone (MCH1), A7 Human μ-opioid (MOP), A8 Human neurokinin (NK1), A9 Human neuropeptide Y (NPY-Y1), A10 Human opioid (ORL1) A11 Mouse urotensin (mUR2)
(§3) Screening experiments were performed in either a 50 μl filtration or 25 μl FlashPlate assay format using the following protocol:
(§4) 19.5 μl buffer, 0.5 μl of compound diluted in DMSO, 5 μl of radioligand diluted in binding buffer.
(§5) The day prior to performing the experiment 50 μl DMSO was added to each well of the compound plates to yield compounds at a final concentration of 10 mM. Daughter plates were then created by diluting the compounds further in DMSO to a concentration of 0.5 mM. The mother plates were frozen immediately.
(§6) Immobilize membranes into FlashPlate microplates using PerkinElmer BioSignal's proprietary coating procedure. Dilute radioligand to 5× the final concentration in binding buffer. Add 19.5 μl buffer to each well of the FlashPlate. Add 0.5 μl of DMSO (total value, 5 wells), reference ligand (non-specific value, 3 wells) or compound to the corresponding wells in the FlashPlate microplate. Initiate the reaction by adding 5 μl of radioligand to each well. Apply TopSeal-A onto FlashPlate microplates. Incubate at room temperature for 1 hour in the dark. Count for 30 seconds per well on TopCount Microplate Scintillation and Luminescence Counter (PerkinElmer) using a count delay of 60 seconds.
(§7) Percentage inhibition was calculated using the following formula: [formula]

[2] = target: T2, Human κ-Opioid (KOP) (Homo sapiens, UniProt P41145); assay: Radioligand binding, human κ-opioid (KOP) membranes, filtration, [3H]-Diprenorphine; settings: compound at 10 μM, [3H]-Diprenorphine, human KOP membranes
T2 construct: purchased Perkin Elmer Biosignal
T2 sequence (P41145 whole entry): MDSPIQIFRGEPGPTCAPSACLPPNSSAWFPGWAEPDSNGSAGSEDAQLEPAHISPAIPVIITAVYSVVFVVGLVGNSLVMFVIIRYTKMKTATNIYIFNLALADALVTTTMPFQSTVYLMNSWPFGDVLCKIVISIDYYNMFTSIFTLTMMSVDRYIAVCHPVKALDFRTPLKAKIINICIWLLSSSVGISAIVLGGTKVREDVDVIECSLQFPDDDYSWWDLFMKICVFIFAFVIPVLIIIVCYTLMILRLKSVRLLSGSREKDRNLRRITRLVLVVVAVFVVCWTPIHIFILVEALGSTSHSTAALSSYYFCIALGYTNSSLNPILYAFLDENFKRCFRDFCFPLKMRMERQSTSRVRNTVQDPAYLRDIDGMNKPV
Protocol: as §1, §2, §3
(§8) 44 μl membranes diluted in buffer, 1 μl of compound diluted in DMSO, 5 μl of radioligand diluted in binding buffer.
as §5
(§9) Thaw membranes on ice then dilute membranes in binding buffer at a concentration of 1 Unit per well. Dilute radio-ligand to 10 times the final concentration in binding buffer. Add 44 μl of diluted membranes to each well of the deep-well plate. Add 1 μl of DMSO (total value, 5 wells), reference ligand (non-specific value, 3 wells) or compound to the corresponding wells in the deep-well plate. Initiate the reaction by adding 5 μl of radioligand to each well and vortex gently. Incubate at room temperature for 1 hour. During incubation, pre-incubate the Multiscreen Harvest plates in 0.3% PEI. Filter over pre-soaked Multiscreen Harvest plates using a Tomtec Harvester. Wash 9 times with 500 μl of cold 50 mM Tris-HCl pH 7.4 at 4° C. and air-dry for 30 minutes at room temperature under a fume hood. Apply a bottom seal to the Multiscreen Harvest plates. Add 25 μl of MicroScint-0 to each well. Apply TopSeal-A to the plate. Count for 30 seconds per well on TopCount Microplate Scintillation and Luminescence Counter (PerkinElmer) using a count delay of 60 seconds.
as §7

[3] = target: T3, Human Melanocortin (MC4) (Homo sapiens, UniProt P32245); assay: Radioligand binding, human melanocortin MC4 membranes, FlashPlate, [125I]-NDP-αMSH; settings: compound at 10 μM; [125I]-NDP-αMSH, human MC4 membranes
T3 construct: purchased Perkin Elmer Biosignal
T3 sequence (P32245 whole entry): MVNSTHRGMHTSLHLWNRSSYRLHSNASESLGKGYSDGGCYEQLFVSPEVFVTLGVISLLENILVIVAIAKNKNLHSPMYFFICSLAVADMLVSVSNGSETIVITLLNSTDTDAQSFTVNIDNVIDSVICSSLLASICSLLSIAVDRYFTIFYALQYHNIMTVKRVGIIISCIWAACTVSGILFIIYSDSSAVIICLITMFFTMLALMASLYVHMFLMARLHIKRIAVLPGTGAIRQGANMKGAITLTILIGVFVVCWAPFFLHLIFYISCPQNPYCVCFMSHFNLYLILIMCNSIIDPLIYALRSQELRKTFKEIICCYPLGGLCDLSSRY
Protocol: as §1, §2, §3, §4, §5, §6, §7

[4] = target: T4, Human melanocortin (MC5) (Homo sapiens, UniProt P33032); assay: Radioligand binding, human melanocortin MC5 membranes, FlashPlate, [125I]-NDP-αMSH; settings: compound at 10 μM; [125I]-NDP-αMSH, human MC5 membranes
T4 construct: purchased Perkin Elmer Biosignal
T4 sequence (P33032 whole entry): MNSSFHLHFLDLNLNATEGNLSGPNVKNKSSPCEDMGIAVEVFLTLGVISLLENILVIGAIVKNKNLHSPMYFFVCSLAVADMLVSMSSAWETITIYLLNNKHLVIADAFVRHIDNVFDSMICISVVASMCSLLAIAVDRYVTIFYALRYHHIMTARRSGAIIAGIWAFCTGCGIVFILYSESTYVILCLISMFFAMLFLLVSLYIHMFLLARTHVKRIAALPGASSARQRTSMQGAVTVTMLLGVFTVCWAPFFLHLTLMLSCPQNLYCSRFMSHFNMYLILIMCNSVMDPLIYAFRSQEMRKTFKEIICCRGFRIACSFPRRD
Protocol: as §1, §2, §3, §4, §5, §6, §7

[5] = target: T5, Human neuropeptide Y (NPY-Y1) (Homo sapiens, UniProt P25929); assay: Radioligand binding, human neuropeptide Y NPY-Y1 membranes, FlashPlate, [125I]-PYY; settings: compound at 10 μM; [125I]-PYY, human NPY-Y1 membranes
T5 construct: purchased Perkin Elmer Biosignal
T5 sequence (P25929 1-384): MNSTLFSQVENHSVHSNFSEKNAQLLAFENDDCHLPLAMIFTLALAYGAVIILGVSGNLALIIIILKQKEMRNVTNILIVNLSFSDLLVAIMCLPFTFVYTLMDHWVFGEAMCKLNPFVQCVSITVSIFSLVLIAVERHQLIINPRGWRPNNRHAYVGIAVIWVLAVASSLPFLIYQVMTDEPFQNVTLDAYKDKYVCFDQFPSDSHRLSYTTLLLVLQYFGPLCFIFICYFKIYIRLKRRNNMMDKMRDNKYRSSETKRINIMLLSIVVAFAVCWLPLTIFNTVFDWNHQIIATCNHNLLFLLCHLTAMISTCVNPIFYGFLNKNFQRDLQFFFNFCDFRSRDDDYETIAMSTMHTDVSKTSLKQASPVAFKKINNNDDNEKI
Protocol: as §1, §2, §3, §4, §5, §6, §7

[6] = target: T6, Human μ-opioid (MOP) (Homo sapiens, UniProt P35372); assay: Radioligand binding, human μ-opioid (MOP) membranes, FlashPlate, [3H]-Naloxone; settings: compound at 10 μM, [3H]-Naloxone, human MOP membranes
T6 construct: purchased Perkin Elmer Biosignal
T6 sequence (P35372 whole entry): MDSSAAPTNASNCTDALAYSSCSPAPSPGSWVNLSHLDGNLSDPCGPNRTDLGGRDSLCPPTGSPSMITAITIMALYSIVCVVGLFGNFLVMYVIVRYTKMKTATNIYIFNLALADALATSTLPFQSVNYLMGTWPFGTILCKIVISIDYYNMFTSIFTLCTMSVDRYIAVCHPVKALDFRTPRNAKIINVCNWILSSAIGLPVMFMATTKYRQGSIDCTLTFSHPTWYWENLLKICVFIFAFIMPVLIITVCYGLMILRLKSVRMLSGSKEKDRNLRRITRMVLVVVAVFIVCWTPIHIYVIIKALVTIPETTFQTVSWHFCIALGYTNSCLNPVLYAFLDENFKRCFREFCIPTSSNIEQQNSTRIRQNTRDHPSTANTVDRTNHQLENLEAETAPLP
Protocol: as §1, §2, §3, §4, §5, §6, §7

[7] = target: T7, Human Melanocortin (MC3) (Homo sapiens, UniProt P41968); assay: Radioligand binding, human melanocortin MC3 membranes, FlashPlate, [125I]-NDP-αMSH; settings: compound at 10 μM, [125I]-NDP-αMSH, human MC3 membranes
T7 construct: purchased Perkin Elmer Biosignal
T7 sequence (P41968 whole entry): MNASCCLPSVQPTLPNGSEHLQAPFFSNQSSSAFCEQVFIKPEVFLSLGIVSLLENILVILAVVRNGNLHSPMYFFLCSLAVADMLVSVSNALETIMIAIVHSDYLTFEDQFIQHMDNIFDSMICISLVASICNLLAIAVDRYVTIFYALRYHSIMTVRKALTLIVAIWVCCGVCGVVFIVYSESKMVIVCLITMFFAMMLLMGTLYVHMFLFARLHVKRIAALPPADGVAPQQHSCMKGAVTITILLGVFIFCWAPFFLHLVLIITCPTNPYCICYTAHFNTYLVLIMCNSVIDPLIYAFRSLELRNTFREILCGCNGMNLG
Protocol: as §1, §2, §3, §4, §5, §6, §7

[8] = target: T8, Human δ-opioid (DOP) (Homo sapiens, UniProt P41143); assay: Radioligand binding, human δ-opioid (DOP) membranes, FlashPlate, [3H]-Bremazocine; settings: compound at 10 μM; [3H]-Bremazocine, human DOP membranes
T8 construct: purchased Perkin Elmer Biosignal
T8 sequence (P41143 whole entry): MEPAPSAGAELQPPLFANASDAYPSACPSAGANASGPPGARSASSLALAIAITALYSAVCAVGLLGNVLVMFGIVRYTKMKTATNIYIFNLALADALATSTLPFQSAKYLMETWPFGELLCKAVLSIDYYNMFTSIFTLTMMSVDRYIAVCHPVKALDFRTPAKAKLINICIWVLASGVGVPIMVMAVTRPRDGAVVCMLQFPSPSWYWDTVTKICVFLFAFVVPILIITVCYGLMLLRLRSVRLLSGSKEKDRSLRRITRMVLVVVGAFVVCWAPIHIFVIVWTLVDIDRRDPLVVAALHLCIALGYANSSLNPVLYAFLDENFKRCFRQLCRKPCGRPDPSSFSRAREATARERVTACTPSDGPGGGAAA
Protocol: as §1, §2, §3, §4, §5, §6, §7

[9] = target: T9, Human neurokinin (NK1) (Homo sapiens, UniProt P25103); assay: Radioligand binding, human neurokinin NK1 membranes, filtration, [125I]-Substance P; settings: compound at 10 μM; [125I]-Substance P, human NK1 membranes
T9 construct: purchased Perkin Elmer Biosignal
T9 sequence (P25103 whole entry): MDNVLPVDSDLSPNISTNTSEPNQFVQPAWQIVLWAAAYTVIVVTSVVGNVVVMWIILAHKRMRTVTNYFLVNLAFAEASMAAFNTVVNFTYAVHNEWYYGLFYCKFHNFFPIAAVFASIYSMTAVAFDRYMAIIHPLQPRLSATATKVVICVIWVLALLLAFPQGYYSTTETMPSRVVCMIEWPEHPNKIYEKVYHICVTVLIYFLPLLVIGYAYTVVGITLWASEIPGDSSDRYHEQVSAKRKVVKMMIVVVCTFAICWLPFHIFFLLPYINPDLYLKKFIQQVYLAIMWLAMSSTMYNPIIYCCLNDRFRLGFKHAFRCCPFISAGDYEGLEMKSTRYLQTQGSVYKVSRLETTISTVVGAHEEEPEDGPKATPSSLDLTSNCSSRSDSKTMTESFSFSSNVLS
Protocol: as §1, §2, §3, §8, §5, §9, §7

[10] = target: T10, Human opioid (ORL1) (Homo sapiens, UniProt P41146); assay: Radioligand binding, human opioid ORL1 membranes, FlashPlate, [125I]-Nociceptin; settings: compound at 10 μM; [125I]-Nociceptin, human ORL1 membranes; 10 µM
T10 construct: purchased Perkin Elmer Biosignal
T10 sequence (P41146 whole entry): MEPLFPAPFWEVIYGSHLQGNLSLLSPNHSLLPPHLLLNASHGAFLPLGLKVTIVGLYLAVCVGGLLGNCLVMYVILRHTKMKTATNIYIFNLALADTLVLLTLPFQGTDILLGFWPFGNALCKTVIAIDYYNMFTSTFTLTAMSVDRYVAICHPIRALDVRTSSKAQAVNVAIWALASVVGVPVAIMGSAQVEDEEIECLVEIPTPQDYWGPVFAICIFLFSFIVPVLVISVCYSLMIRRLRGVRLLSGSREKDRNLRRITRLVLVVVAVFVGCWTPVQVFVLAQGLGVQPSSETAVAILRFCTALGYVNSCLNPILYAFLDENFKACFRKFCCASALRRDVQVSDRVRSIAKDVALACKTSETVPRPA
Protocol: as §1, §2, §3, §4, §5, §6, §7

[11] = target: T11, Mouse urotensin (mUR2) (Mus musculus, UniProt Q8VIH9); assay: Radioligand binding, mouse urotensin mUR2 membranes, FlashPlate, [125I]-Urotensin II; settings: compound at 10 μM; [125I]-Urotensin II, mouse mUR2 membranes
T11 construct: purchased Perkin Elmer Biosignal
T11 sequence (Q8VIH9 1-385): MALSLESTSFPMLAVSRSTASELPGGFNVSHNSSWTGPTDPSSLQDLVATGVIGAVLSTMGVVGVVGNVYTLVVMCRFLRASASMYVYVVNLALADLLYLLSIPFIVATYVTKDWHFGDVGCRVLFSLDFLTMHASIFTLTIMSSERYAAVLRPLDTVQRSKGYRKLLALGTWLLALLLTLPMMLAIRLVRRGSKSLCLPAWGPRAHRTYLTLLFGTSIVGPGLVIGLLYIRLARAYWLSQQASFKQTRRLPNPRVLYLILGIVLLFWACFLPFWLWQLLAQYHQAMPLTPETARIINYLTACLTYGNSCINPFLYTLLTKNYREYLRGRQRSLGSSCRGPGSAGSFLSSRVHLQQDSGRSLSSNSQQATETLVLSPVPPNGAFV
Protocol: as §1, §2, §3, §4, §5, §6, §7

T1 sequence (Q99705 whole entry): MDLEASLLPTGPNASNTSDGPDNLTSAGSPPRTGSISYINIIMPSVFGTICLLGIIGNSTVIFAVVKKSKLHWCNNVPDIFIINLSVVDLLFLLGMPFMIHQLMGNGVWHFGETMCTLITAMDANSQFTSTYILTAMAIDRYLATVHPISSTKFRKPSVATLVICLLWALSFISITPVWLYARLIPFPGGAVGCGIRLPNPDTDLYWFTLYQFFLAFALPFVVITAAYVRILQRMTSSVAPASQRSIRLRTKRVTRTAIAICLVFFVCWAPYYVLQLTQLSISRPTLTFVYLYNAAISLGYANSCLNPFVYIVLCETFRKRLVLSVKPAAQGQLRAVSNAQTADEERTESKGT

| Compound | A6: inhibition of radioligand binding ([1]; 10 µM) | A2: inhibition of radioligand binding [2] | A4: inhibition of radioligand binding [3] | A5: inhibition of radioligand binding [4] | A9: inhibition of radioligand binding [5] | A7: inhibition of radioligand binding [6] | A3: inhibition of radioligand binding ([7]; 10 µM) | A1: inhibition of radioligand binding [8] | A8: inhibition of radioligand binding [9] | A10: inhibition of radioligand binding [10] | A11: inhibition of radioligand binding [11] | A6: inhibition of radioligand binding [1] | A2: inhibition of radioligand binding ([2]; 10 µM) | A7: inhibition of radioligand binding ([6]; 10 µM) | A3: inhibition of radioligand binding [7] |
| --- | --- | --- | --- | --- | --- | --- | --- | --- | --- | --- | --- | --- | --- | --- | --- |
| NCCC(=O)NC1C(OCc2ccc3ccccc3c2)OC(COCc2ccc(Cl)cc2)C(O)C1OCc1ccccc1 (single isomer, unassigned) [compound 452] | − (“−” indicates less than 50% inhibition at 10 μM) | − (“−” indicates less than 50% inhibition at 10 μM) | + (“+” indicates greater than 50% inhibition at 10 μM) | + (“+” indicates greater than 50% inhibition at 10 μM) | − (“−” indicates less than 50% inhibition at 10 μM) | − (“−” indicates less than 50% inhibition at 10 μM) | − (“−” indicates less than 50% inhibition at 10 μM) | − (“−” indicates less than 50% inhibition at 10 μM) | + (“+” indicates greater than 50% inhibition at 10 μM) | − (“−” indicates less than 50% inhibition at 10 μM) | − (“−” indicates less than 50% inhibition at 10 μM) | – | – | – | – |
| NCCC(=O)NC1C(OCc2ccc3ccccc3c2)OC(COCc2ccc(Cl)cc2)C(O)C1OCc1ccccc1 (single isomer, unassigned) [compound 453] | + (“+” indicates greater than 50% inhibition at 10 μM) | − (“−” indicates less than 50% inhibition at 10 μM) | + (“+” indicates greater than 50% inhibition at 10 μM) | + (“+” indicates greater than 50% inhibition at 10 μM) | − (“−” indicates less than 50% inhibition at 10 μM) | − (“−” indicates less than 50% inhibition at 10 μM) | + (“+” indicates greater than 50% inhibition at 10 μM) | − (“−” indicates less than 50% inhibition at 10 μM) | + (“+” indicates greater than 50% inhibition at 10 μM) | − (“−” indicates less than 50% inhibition at 10 μM) | − (“−” indicates less than 50% inhibition at 10 μM) | – | – | – | – |
| NCCCC(=O)NC1C(OCc2ccc3ccccc3c2)OC(COCc2ccc3ccccc3c2)C(O)C1OCc1ccc(Cl)cc1 (single isomer, unassigned) [compound 454] | – | – | + (“+” indicates greater than 50% inhibition at 10 μM) | + (“+” indicates greater than 50% inhibition at 10 μM) | − (“−” indicates less than 50% inhibition at 10 μM) | – | – | − (“−” indicates less than 50% inhibition at 10 μM) | + (“+” indicates greater than 50% inhibition at 10 μM) | + (“+” indicates greater than 50% inhibition at 10 μM) | − (“−” indicates less than 50% inhibition at 10 μM) | + (“+” indicates greater than 50% inhibition at 10 μM) | − (“−” indicates less than 50% inhibition at 10 μM) | + (“+” indicates greater than 50% inhibition at 10 μM) | + (“+” indicates greater than 50% inhibition at 10 μM) |
| NCCCC(=O)NC1C(OCc2ccc3ccccc3c2)OC(COCc2ccc3ccccc3c2)C(O)C1OCc1ccc(Cl)cc1 (single isomer, unassigned) [compound 455] | – | – | + (“+” indicates greater than 50% inhibition at 10 μM) | + (“+” indicates greater than 50% inhibition at 10 μM) | − (“−” indicates less than 50% inhibition at 10 μM) | – | – | − (“−” indicates less than 50% inhibition at 10 μM) | + (“+” indicates greater than 50% inhibition at 10 μM) | − (“−” indicates less than 50% inhibition at 10 μM) | − (“−” indicates less than 50% inhibition at 10 μM) | + (“+” indicates greater than 50% inhibition at 10 μM) | + (“+” indicates greater than 50% inhibition at 10 μM) | + (“+” indicates greater than 50% inhibition at 10 μM) | + (“+” indicates greater than 50% inhibition at 10 μM) |
